What is called koff is a measure of how fast the partners let go of each other. The low end stands for a long-lived complex, the high end for a short-lived complex.

Peptide text beside a SMILES is read from it. * marks the point of attachment. Biotin = O=C1N[C@H]2[C@H](CS[C@H]2CCCCC(=O)*)N1

For this test, the target named is T1, Bcl-xL (Homo sapiens, UniProt Q07817).
T1 construct: The gene for the first 209 amino acids of Bcl-xL; made in house; host or cells: E. coli BL21(DE3), pET24a vector
Put plainly: High-throughput sequencing kinetic (HTSK) on- and off-rates of mRNA-peptide fusions. It counts as binding. The following applies: mRNA-peptide fusions, next-generation sequencing. Here is the method: Preparing the pools of fusion ligands. The DNAs for the final enriched pools from the extension and the doped selection against Bcl-xL were generated. The DNA pools were PCR amplified using Taq polymerase and in vitro transcribed into mRNA using T7 RNA polymerase (Liu et al., Methods Enzymol. 318, 268-293 (2000)). After transcription, the mRNA was urea-PAGE purified and resuspended in deionized water to a final concentration of 30 μM. The mRNA was then ligated to fluorescein-F30P (phosphate-dA21-[dT-fluor]-[C9]3-dAdCdCP; where [dT-fluor] is fluorescein dT (Glen Research), [C9] is spacer 9 (Glen Research), and P is puromycin (Glen Research); synthesized at the Keck Oligo Facility at Yale) using T4 DNA ligase (Takahashi et al., Methods Mol. Biol. 535, 293-314 (2009)). The ligation was performed using a splint complementary to the 3′ end of the RNA and the 5′ end of the DNA-linker. The ligated mRNA was urea-PAGE purified and resuspended in deionized water to final concentration of 30 μM. The samples were in vitro translated in the translation solution-150 mM KOAc, 750 μM MgCl2, 2 μM mRNA, in 1× translation mix (20 mM Hepes-KOH pH 7.6, 100 mM creatine phosphate, 2 mM DTT, and 312.5 μM of each amino acid) and 60% (v/v) rabbit reticulocyte lysate. To prepare radiolabeled peptides or proteins, non-labeled methionine was substituted with ^35S-labeled methionine (Perkin Elmer; 20 μCi for each 25 μL of translation). The translation reactions were incubated at 30° C. for one hour. To form mRNA-protein fusions, KCl and MgCl2 were added to the reaction to final concentrations of 250 mM and 30 mM respectively after translation, and the samples were frozen at −20° C.
To purify the fusion molecules, 100 μL of dT cellulose (25% (v/v) slurry, GE Healthcare) in isolation buffer (100 mM Tris-HCl pH 8.0, 1 M NaCl, 0.2% (v/v) Triton X-100) was added and incubated for 1 hour. The beads were washed five times with 700 μL of isolation buffer, and the fusions were eluted with 3×80 μL of 65° C. water and desalted through Centrisep columns (Princeton Separations). The desalted fusions were adjusted to 1×RT buffer (50 mM Tris-HCl pH 8.3, 75 mM KCl, 3 mM MgCl2, […], […],) and the sample was heated to 65° C. for 5 minutes and cooled on ice to anneal the 3′ primer. After cooling, […] of Superscript II enzyme was added and the reaction incubated at 42° C. for one hour. […]
On- and off-rate experiments. […] The radiolabeled samples were washed 3×, and the beads were counted via a scintillation counter.
To obtain the HTSK off-rates, after the kinetic on-rate experiment, the remaining beads were washed 5× with selection buffer. […] The radiolabeled samples were washed and counted via a scintillation counter. […]

T1 sequence (Q07817 1-209 limits assumed): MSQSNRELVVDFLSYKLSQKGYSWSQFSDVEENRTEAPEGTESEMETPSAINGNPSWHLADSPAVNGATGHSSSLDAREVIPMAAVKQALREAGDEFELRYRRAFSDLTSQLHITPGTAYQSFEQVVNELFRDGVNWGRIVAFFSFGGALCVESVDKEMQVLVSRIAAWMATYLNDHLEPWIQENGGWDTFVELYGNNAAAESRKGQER

Regarding `CC[C@H](C)[C@H](NC(=O)[C@H](C)NC(=O)[C@@H](NC(=O)[C@@H](N)CCSC)[C@@H](C)CC)C(=O)N[C@@H](CO)C(=O)N[C@H](C(=O)N[C@H](C(=O)N[C@@H](Cc1ccc(O)cc1)C(=O)N[C@@H](CC(N)=O)C(=O)N[C@@H](Cc1ccc(O)cc1)C(=O)N[C@@H](CCCCN)C(=O)N[C@@H](CCCCN)C(=O)N[C@@H](C)C(=O)N[C@@H](C)C(=O)N[C@@H](CC(=O)O)C(=O)N[C@@H](Cc1c[nH]cn1)C(=O)N[C@@H](Cc1ccc(O)cc1)C(=O)N[C@@H](C)C(=O)N[C@@H](CCSC)C(=O)N[C@H](C(=O)N[C@@H](CCCCN)C(=O)NCC(=O)N[C@@H](CO)C(=O)N[C@@H](CCCCNC(=O)CCCC[C@@H]1SC[C@@H]2NC(=O)N[C@@H]21)C(N)=O)[C@@H](C)O)[C@@H](C)CC)[C@@H](C)O` [D1] (H-MIAISTIYNYKKAADHYAMTKGSK(Biotin)-NH2), the koff was 1e-06 s⁻¹.
For `CC[C@H](C)[C@H](NC(=O)[C@@H](NC(=O)[C@@H](NC(=O)[C@@H](NC(=O)[C@H](CCC(=O)O)NC(=O)[C@@H](NC(=O)[C@@H](N)CCSC)[C@@H](C)CC)[C@@H](C)O)[C@@H](C)CC)[C@@H](C)O)C(=O)N[C@@H](Cc1ccc(O)cc1)C(=O)N[C@@H](CC(N)=O)C(=O)N[C@@H](Cc1ccc(O)cc1)C(=O)N[C@@H](CCCCN)C(=O)N[C@@H](CCCCN)C(=O)N[C@@H](C)C(=O)N[C@@H](C)C(=O)N[C@@H](CC(=O)O)C(=O)N[C@@H](Cc1c[nH]cn1)C(=O)N[C@@H](Cc1ccccc1)C(=O)N[C@@H](CO)C(=O)N[C@@H](CCSC)C(=O)N[C@@H](CO)C(=O)N[C@@H](CCSC)C(=O)NCC(=O)N[C@@H](CO)C(=O)N[C@@H](CCCCNC(=O)CCCC[C@@H]1SC[C@@H]2NC(=O)N[C@@H]21)C(N)=O` [E1] (H-MIETITIYNYKKAADHFSMSMGSK(Biotin)-NH2) the value was 2.5e-06 s⁻¹.

These data come from US20180172683A1, “METHODS FOR ANALYZING THE INTERACTION BETWEEN A TARGET PROTEIN AND A LIGAND” (UNIVERSITY OF SOUTHERN CALIFORNIA, priority 2015, published 2018).
